Literature values as cited in patent publication US20160000732A1, “ORAL PHARMACEUTICAL COMPOSITIONS OF OSPEMIFENE” (CADILA HEALTHCARE LIMITED, priority 2014, published 2016).

Experiments:
[1] = experimental models and human volunteers; WO 1996/07402, WO 1997/32574
[2] = classical hormonal tests, Kangas 1990

For `OCCOc1ccc(/C(=C(/CCCl)c2ccccc2)c2ccccc2)cc1` [Ospemifene, 2-[4-(4-chloro-1,2-diphenylbut-1-enyl)phenoxy]ethanol], the “total and LDL cholesterol levels” value [1] is listed as “decreases” and the “estrogenic and antiestrogenic effects” value [2] is listed as “relatively weak”.
